According to patent US20050245510A1 (Boehringer Ingelheim Vetmedica GmbH, priority 2004, published 2005):

Key:
mastitis cases = details: infused intramammarily in special vehicle together with amoxicillin/clavulanic acid; cited from earlier work
[1] = system: E. coli endotoxin 026:B6 lipopolysaccharide induced mastitis in lactating cows; assay type: in vivo
Procedure: A blinded in-vivo study with a parallel group design was conducted in 2003. The study was conducted according to Good Laboratory Practices.
The animals were clinically examined before endotoxin-challenge and at 2 h (before treatment), 4 h, 6 h, 8 h, 10 h, 24 h, 34 h, 48 h, 72 h, 7 days, and 14 days after endotoxin-challenge.
The size of the challenged udder quarter was documented using the following score: • 0 Normal • 1 Slight increase up to 20% • 2 20-50% increase • 3 More than 50% increase
Ruminal contractions during a 2 minutes period were examined by auscultation in the left paralumbar fossa. In painful conditions of any kind, the frequency of ruminal contractions in ruminants tends to decrease.
Milk samples for analysis of thromboxane B2 (TBX)—a relevant mediator of inflammation—were taken from the endotoxin-challenged quarter before endotoxin challenge and at 2 h (before treatment), 4 h, 6 h, 8 h, 10 h, and 24 h after endotoxin-challenge.
Milk somatic cell count (SCC) was measured before endotoxin-challenge and at 10 h, 24 h, 34 h, 48 h, 72 h, 7 days, and 14 days after challenge.

| Structure (SMILES) | effect on pain perception (mastitis cases) | ruminal contractions in 2 min, mean ± S.D. ([1]; 30 mg meloxicam per quarter, at 24 h after challenge) | size of challenged udder quarter, mean score ± S.D. ([1]; 30 mg meloxicam per quarter, intramammary 2 h after challenge, at 10 h after challenge) | standardised difference of udder size score versus untreated ([1]; 30 mg meloxicam, 10 h, difference in means divided by larger S.D. (untreated group)) | standardised difference of ruminal contractions versus untreated ([1]; 30 mg meloxicam, 24 h, calculated with larger S.D. (untreated group)) | local and systemic tolerance ([1]; intramammary, dose range 10-50 mg per affected udder quarter) |
| --- | --- | --- | --- | --- | --- | --- |
| Cc1c(Nc2ncccc2C(=O)O)cccc1C(F)(F)F [flunixin, flunixin meglumine] | no beneficial effect on pain perception |  |  |  |  |  |
| Cc1cnc(NC(=O)C2=C(O)c3ccccc3S(=O)(=O)N2C)s1 [meloxicam] |  | 3.4±0.55 | 1.2±0.44 score (0-3) | 1.2 | 0.9 | good |
